Assays:
[1] = molecular target: T1, PA-hST8Sia VI (human ST8Sia VI) (Homo sapiens, UniProt P61647, L267F); assay: Sialyltransferase activity of PA-hST8Sia VI toward acceptor substrates; format: biochemical; conditions: incorporation with Fetuin taken as 100, substrate 0.5 mg/ml glycolipids, 1 mg/ml glycoproteins, monosaccharides and oligosaccharides
T1 construct: amino acids 68-398 in the case of human ST8Sia VI; signal peptide of mouse immunoglobulin IgM (N); made in house; host or cells: COS-7 cells, transient expression of pcDSA-hST8Sia VI; protein recovered from medium on IgG-Sepharose
T1 sequence (P61647 68-398 L267F): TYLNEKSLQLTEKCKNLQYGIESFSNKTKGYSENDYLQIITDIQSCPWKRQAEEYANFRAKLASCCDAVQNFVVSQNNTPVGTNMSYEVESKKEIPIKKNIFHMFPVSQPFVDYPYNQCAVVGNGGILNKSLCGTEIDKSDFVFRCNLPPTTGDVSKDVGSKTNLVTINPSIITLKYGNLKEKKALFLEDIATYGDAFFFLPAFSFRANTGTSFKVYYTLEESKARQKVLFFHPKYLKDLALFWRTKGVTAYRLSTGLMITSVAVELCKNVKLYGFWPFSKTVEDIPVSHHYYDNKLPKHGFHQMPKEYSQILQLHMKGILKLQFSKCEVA
Method: (§1) Using each expression vector and lipofectamine (Invitrogen), transient expression was carried out in COS-7 cells (Kojima, N. et al. (1995) FEBS Lett. 360, 1-4). The proteins of the present invention secreted from the cells into which each expression vector had been introduced were named as PA-mST8Sia VI (mouse) and PA-hST8Sia VI (human). PA-mST8Sia VI and PA-hST8Sia VI were adsorbed to IgG-Sepharose (Amersham Pharmacia Biotech), and were then recovered from medium. Sialyltransferase activity was measured as follows according to the method of Lee et al. (Lee, Y.-C. et al. (1999) J. Biol. Chem. 274, 11958-11967). A reaction solution (10 μl) containing 50 mM MES buffer (pH 6.0), 1 mM MgCl2, 1 mM CaCl2, 0.5% Triton CF-54, 100 μM CMP-[^14C]-NeuAc, a glycoconjugate (which was added at 0.5 mg/ml in the case of glycolipids, and at 1 mg/ml in the case of glycoproteins or oligosaccharides), and a PA-mST8Sia VI or PA-hST8Sia VI suspension, was incubated at 37° C. for 3 to 20 hours. Thereafter, in the case of glycolipids, the reaction product was purified with a C-18 column (Sep-Pak Vac 100 mg; Waters) and the purified product was used as a sample, and in the case of oligosaccharides or glycoproteins, the reaction product was directly used as a sample. Thus, the obtained samples were subjected to analysis. In the case of oligosaccharides or glycolipids, the sample was spotted on a silica gel 60 HPTLC plate (Merck), and was then developed with a developing solvent consisting of ethanol:pyridine:n-butanol:water:acetic acid=100:10:10:30:3 (for oligosaccharides), a developing solvent consisting of 1-propanol:ammonia water:water=6:1:2.5 (for oligosaccharides), or a developing solvent consisting of chloroform:methanol: 0.02% CaCl2=55:45:10 (for glycolipids). In the case of glycoproteins, analysis was carried out by SDS-polyacrylamide gel electrophoresis. The obtained radioactivities were visualized with a BAS2000 radio image analyzer (Fuji Film) and then quantified.

[2] = molecular target: T2, PA-mST8Sia VI (mouse ST8Sia VI) (Mus musculus, UniProt Q8K4T1); assay: Sialyltransferase activity of PA-mST8Sia VI toward acceptor substrates; format: biochemical; conditions: for Relative rate (%) Mouse ST8SiaVI: incorporation with Fetuin taken as 100, substrate 0.5 mg/ml glycolipids, 1 mg/ml glycoproteins, monosaccharides and oligosaccharides
T2 construct: amino acids 26-398 in the case of mouse ST8Sia VI; signal peptide of mouse immunoglobulin IgM (N); made in house; host or cells: COS-7 cells, transient expression of pcDSA-mST8Sia VI; protein recovered from medium on IgG-Sepharose
T2 sequence (Q8K4T1 26-398): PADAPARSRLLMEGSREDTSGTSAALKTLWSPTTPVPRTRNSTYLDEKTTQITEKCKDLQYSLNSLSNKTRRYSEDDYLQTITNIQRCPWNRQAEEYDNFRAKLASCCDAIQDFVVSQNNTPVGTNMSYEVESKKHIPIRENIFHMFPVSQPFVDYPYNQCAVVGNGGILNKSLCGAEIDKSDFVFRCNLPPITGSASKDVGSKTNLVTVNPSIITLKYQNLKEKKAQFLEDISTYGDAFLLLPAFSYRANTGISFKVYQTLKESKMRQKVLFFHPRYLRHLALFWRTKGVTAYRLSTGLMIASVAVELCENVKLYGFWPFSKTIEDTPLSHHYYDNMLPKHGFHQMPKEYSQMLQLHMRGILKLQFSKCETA
Method: as §1

Question: For “NeuAcα2,3Galβ1,3GalNAcβ1,4(NeuAca2,3)Galβ1,4Glcβ1-Cer [GD1a]”, which “Relative rate (%) Human ST8Sia VI” value [1] is on record?
Answer: 1.8%

Question: And the “activity of PA-mST8Sia VI on the substrate (in words)” value [2]?
Answer: showed activity

Question: And the “Relative rate (%) Mouse ST8SiaVI” value [2]?
Answer: 6.0%

Question: “NeuAcα2,8NeuAcα2,8Galβ1,3GalNAcβ1,4(NeuAcα2,8NeuAcα2,3)Galβ1,4Glcβ1-Cer [GQ1b]” was tested. Which “Relative rate (%) Human ST8Sia VI” value [1] did it give?
Answer: 0%

Question: And the “Relative rate (%) Mouse ST8SiaVI” value [2]?
Answer: 0%

Question: For CC(=O)N[C@H]1[C@H]([C@H](O)[C@H](O)CO)O[C@@](O[C@H]2[C@@H](O)[C@@H](CO)O[C@@H](O[C@H]3[C@H](O)[C@@H](O)C(O)O[C@@H]3CO)[C@@H]2O)(C(=O)O)C[C@@H]1O (some centres unmarked) [3′-Sialyllactose, NeuAcα2,3Galβ1,4Glc], which “Relative rate (%) Human ST8Sia VI” value [1] is on record?
Answer: 69.9%

Question: What about the “Relative rate (%) Mouse ST8SiaVI” value [2] of the same compound?
Answer: 629%

Question: Which “Relative rate (%) Human ST8Sia VI” value [1] does the source give for “NeuAcα2,8NeuAcα2,3Galβ1,4Glcβ1-Cer [GD3]” here?
Answer: 0%

Question: What about the “Relative rate (%) Mouse ST8SiaVI” value [2] of the same compound?
Answer: 0%

Question: With CC(=O)NC1C(O)CC(OCC2OC(OC3C(CO)OC(O)C(O)C3O)C(O)C(O)C2O)(C(=O)O)OC1C(O)C(O)CO (centres unmarked) [6′-Sialyllactose, NeuAcα2,6Galβ1,4Glc] as the compound, how does the “Relative rate (%) Human ST8Sia VI” value [1] read?
Answer: 10.7%

Question: And the “Relative rate (%) Mouse ST8SiaVI” value [2]?
Answer: 91.5%

Question: Which results are given for “NeuAcα2,8Galβ1,3GalNAcβ1,4(NeuAcα2,8NeuAcα2,3)Galβ1,4Glcβ1-Cer [GT1b]”?
Answer: Relative rate (%) Human ST8Sia VI [1]: 2.2%; activity of PA-mST8Sia VI on the substrate (in words) [2]: showed activity; Relative rate (%) Mouse ST8SiaVI [2]: 1.1%
